The assay deals with T1, human GPR119 (hGPR119) (Homo sapiens, UniProt Q8TDV5).
T1 construct: expressed in transfected cells
T1 sequence (Q8TDV5 1-335): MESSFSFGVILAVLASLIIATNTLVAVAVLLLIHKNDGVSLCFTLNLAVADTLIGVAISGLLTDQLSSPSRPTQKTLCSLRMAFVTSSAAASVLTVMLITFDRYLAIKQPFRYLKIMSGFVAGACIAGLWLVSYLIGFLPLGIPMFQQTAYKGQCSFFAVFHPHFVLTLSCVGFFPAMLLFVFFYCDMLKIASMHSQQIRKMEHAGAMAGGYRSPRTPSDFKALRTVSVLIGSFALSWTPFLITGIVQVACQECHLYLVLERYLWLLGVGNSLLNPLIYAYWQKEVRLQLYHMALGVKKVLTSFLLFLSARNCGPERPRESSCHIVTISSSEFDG
The assay can be described thus: cAMP accumulation assay (Cisbio cAMP Gs dynamic HTRF kit) in CHO-K1 cells stably expressing human GPR119. The class given is cell-based. Conditions: 4-parameter fit; for Emax: 1 h, % activity normalized to Max and Min controls; for EC50: 60 minutes at 37° C. A digest of the protocol: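 CHO-K1 cells stably expressing hGPR119, used as assay-ready frozen stocks at ~10,000 cells/well, exposed to compound dose-response in stimulation buffer with Tween 80 for 60 min at 37° C. cAMP read by HTRF (665/620 nm ratio), normalised to Max/Min controls; EC50 and Max activity from 4-parameter fit.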
(In general: Cyclic AMP is a second messenger, typically raised through Gs and lowered through Gi signalling.)

Counter-ions that a name gives are not always drawn.

In turn, `O=C(Cc1ccc(OCCCC2CCN(c3ncc(Cl)cn3)CC2)cc1F)N1CCC2(CCCC2NC[C@H](O)[C@H](O)[C@H](O)CO)C1` (stereo partly drawn) [Example 76, 2-(4-(3-(1-(5-chloropyrimidin-2-yl)piperidin-4-yl)propoxy)-2-fluorophenyl)-1-(6-(((2S,3S,4R)-2,3,4,5-tetrahydroxypentyl)amino)-2-azaspiro[4.4]nonan-2-yl)ethan-1-one] yielded an Emax of at least 130% and an EC50 of at most 100 nM.

The compound `O=C(Cc1ccc(OCCCC2CCN(c3ncc(Cl)cn3)CC2)cc1F)N1CC2(CCC2NC[C@H](O)[C@H](O)[C@H](O)CO)C1` (stereo partly drawn) [Example 78, 2-(4-(3-(1-(5-chloropyrimidin-2-yl)piperidin-4-yl)propoxy)-2-fluorophenyl)-1-(5-(((2S,3S,4R)-2,3,4,5-tetrahydroxypentyl)amino)-2-azaspiro[3.3]heptan-2-yl)ethan-1-one] showed a maximal effect (Emax) of at least 130% and an EC50 of at most 100 nM.

In turn, `O=C(Cc1ccc(OCCCC2CCN(c3ncc(Cl)cn3)CC2)cc1F)N1CCOC2(CCN(C[C@H](O)[C@H](O)[C@H](O)CO)C2)C1` (stereo partly drawn) [Example 80, 2-(4-(3-(1-(5-chloropyrimidin-2-yl)piperidin-4-yl)propoxy)-2-fluorophenyl)-1-(2-((2S,3S,4R)-2,3,4,5-tetrahydroxypentyl)-6-oxa-2,9-diazaspiro[4.5]decan-9-yl)ethan-1-one] displayed a maximum response (Emax) of 100 to 130% and a concentration giving a half-maximal response (EC50) of at most 100 nM.

In the case of `O=C(Cc1ccc(OCCCC2CCN(c3ncc(Cl)cn3)CC2)cc1F)N1CCOC2(CCN(C[C@H](O)[C@@H](O)[C@H](O)[C@H](O)CO)C2)C1` (stereo partly drawn) [Example 81, 2-(4-(3-(1-(5-chloropyrimidin-2-yl)piperidin-4-yl)propoxy)-2-fluorophenyl)-1-(2-((2S,3R,4R,5R)-2,3,4,5,6-pentahydroxyhexyl)-6-oxa-2,9-diazaspiro[4.5]decan-9-yl)ethan-1-one], the Emax lay within 100 to 130% and the EC50 is at most 100 nM.

As to `O=C(Cc1ccc(OCCCC2CCN(c3ncc(Cl)cn3)CC2)cc1F)N1CC2(C1)OCC2NC[C@H](O)[C@H](O)[C@H](O)CO` (stereo partly drawn) [Example 82, 2-(4-(3-(1-(5-chloropyrimidin-2-yl)piperidin-4-yl)propoxy)-2-fluorophenyl)-1-(3-(((2S,3S,4R)-2,3,4,5-tetrahydroxypentyl)amino)-1-oxa-6-azaspiro[3.3]heptan-6-yl)ethan-1-one], the Emax was 100 to 130% and the EC50 was at most 100 nM.

On to `O=C(Cc1ccc(OCCCC2CCN(c3ncc(Cl)cn3)CC2)cc1F)N1CCC2(CC2NC[C@H](O)[C@H](O)[C@H](O)CO)C1` (stereo partly drawn) [Example 83, 2-(4-(3-(1-(5-chloropyrimidin-2-yl)piperidin-4-yl)propoxy)-2-fluorophenyl)-1-(1-(((2S,3S,4R)-2,3,4,5-tetrahydroxypentyl)amino)-5-azaspiro[2.4]heptan-5-yl)ethan-1-one], for which the maximal effect (Emax) was 100 to 130% and the half-maximal effective concentration (EC50) was at most 100 nM.

As to `O=C(Cc1c(F)cc(OCCCC2CCN(c3ncc(Cl)cn3)CC2)cc1F)N1CCN(C[C@H](O)[C@@H](O)[C@H](O)[C@H](O)CO)CC1` [Example 85, 2-(4-(3-(1-(5-chloropyrimidin-2-yl)piperidin-4-yl)propoxy)-2,6-difluorophenyl)-1-(4-((2S,3R,4R,5R)-2,3,4,5,6-pentahydroxyhexyl)piperazin-1-yl)ethan-1-one formate], the maximal response (Emax) is at least 130% and the EC50 is at most 100 nM.

The compound `O=C(Cc1ccc(OCCCCC2CCN(c3ncc(Cl)cn3)CC2)cc1F)N1CCN(C[C@H](O)[C@@H](O)[C@H](O)[C@H](O)CO)CC1` [Example 86, 2-(4-(4-(1-(5-chloropyrimidin-2-yl)piperidin-4-yl)butoxy)-2-fluorophenyl)-1-(4-((2S,3R,4R,5R)-2,3,4,5,6-pentahydroxyhexyl)piperazin-1-yl)ethan-1-one] registered an Emax of 100 to 130% and a concentration for a half-maximal effect (EC50) of at most 100 nM.

In turn, `O=C(Cc1c(F)cc(OCCCCC2CCN(c3ncc(Cl)cn3)CC2)cc1F)N1CCN(C[C@H](O)[C@@H](O)[C@H](O)[C@H](O)CO)CC1` [Example 87, 2-(4-(4-(1-(5-chloropyrimidin-2-yl)piperidin-4-yl)butoxy)-2,6-difluorophenyl)-1-(4-((2S,3R,4R,5R)-2,3,4,5,6-pentahydroxyhexyl)piperazin-1-yl)ethan-1-one] returned an Emax of at least 130% and an EC50 of at most 100 nM.

In the case of `O=C(Cc1ccc(OCCCC2CCN(c3ncc(Cl)cn3)CC2)cn1)N1CCN(C[C@H](O)[C@@H](O)[C@H](O)[C@H](O)CO)CC1` [Example 88, 2-(5-(3-(1-(5-chloropyrimidin-2-yl)piperidin-4-yl)propoxy)pyridin-2-yl)-1-(4-((2S,3R,4R,5R)-2,3,4,5,6-pentahydroxyhexyl)piperazin-1-yl)ethan-1-one], the Emax lay in the range of 100 to 130% and the concentration for a half-maximal effect (EC50) is over 10000 nM.

Turning to `O=C(Cc1ncc(OCCCC2CCN(c3ncc(Cl)cn3)CC2)cc1F)N1CCN(C[C@H](O)[C@@H](O)[C@H](O)[C@H](O)CO)CC1` [Example 89, 2-(5-(3-(1-(5-chloropyrimidin-2-yl)piperidin-4-yl)propoxy)-3-fluoropyridin-2-yl)-1-(4-((2S,3R,4R,5R)-2,3,4,5,6-pentahydroxyhexyl)piperazin-1-yl)ethan-1-one], the Emax is 100 to 130% and the EC50 lay within 100 to 1000 nM.

`O=C(Cc1ccc(OCCCC2CCN(c3ncc(Cl)cn3)CC2)nc1)N1CCN(C[C@H](O)[C@@H](O)[C@H](O)[C@H](O)CO)CC1` [Example 90, 2-(6-(3-(1-(5-chloropyrimidin-2-yl)piperidin-4-yl)propoxy)pyridin-3-yl)-1-(4-((2S,3R,4R,5R)-2,3,4,5,6-pentahydroxyhexyl)piperazin-1-yl)ethan-1-one] yielded an Emax of 100 to 130% and a concentration for a half-maximal effect (EC50) of 100 to 1000 nM.

On to `O=C(Cc1ccc(OCCCC2CCN(c3ncc(Cl)cn3)CC2)c(F)c1)N1CCN(C[C@H](O)[C@@H](O)[C@H](O)[C@H](O)CO)CC1` [Example 91, 2-(4-(3-(1-(5-chloropyrimidin-2-yl)piperidin-4-yl)propoxy)-3-fluorophenyl)-1-(4-((2S,3R,4R,5R)-2,3,4,5,6-pentahydroxyhexyl)piperazin-1-yl)ethan-1-one], for which the Emax lay in the range of 100 to 130% and the EC50 was 100 to 1000 nM.

Consider `CCc1cnc(N2CCC(CCCOc3ccc(CC(=O)N4CCN(C[C@H](O)[C@@H](O)[C@H](O)[C@H](O)CO)CC4)c(F)c3)CC2)nc1` [Example 92, 2-(4-(3-(1-(5-ethylpyrimidin-2-yl)piperidin-4-yl)propoxy)-2-fluorophenyl)-1-(4-((2S,3R,4R,5R)-2,3,4,5,6-pentahydroxyhexyl)piperazin-1-yl)ethan-1-one], for which the maximal effect (Emax) fell in the range of 100 to 130% and the concentration for a half-maximal effect (EC50) is at most 100 nM.

Regarding `CCc1cnc(N2CCC(CCCOc3cc(F)c(CC(=O)N4CCN(C[C@H](O)[C@@H](O)[C@H](O)[C@H](O)CO)CC4)c(F)c3)CC2)nc1` [Example 93, 2-(4-(3-(1-(5-ethylpyrimidin-2-yl)piperidin-4-yl)propoxy)-2,6-difluorophenyl)-1-(4-((2S,3R,4R,5R)-2,3,4,5,6-pentahydroxyhexyl)piperazin-1-yl)ethan-1-one], the maximum response (Emax) lay in the range of 100 to 130% and the EC50 was at most 100 nM.

Compound `CCCc1cnc(N2CCC(CCCOc3ccc(CC(=O)N4CCN(C[C@H](O)[C@@H](O)[C@H](O)[C@H](O)CO)CC4)c(F)c3)CC2)nc1` [Example 94, 2-(2-fluoro-4-(3-(1-(5-propylpyrimidin-2-yl)piperidin-4-yl)propoxy)phenyl)-1-(4-((2S,3R,4R,5R)-2,3,4,5,6-pentahydroxyhexyl)piperazin-1-yl)ethan-1-one] came in with an Emax of 100 to 130% and a 50% effective concentration (EC50) of at most 100 nM.

`CCCc1cnc(N2CCC(CCCOc3cc(F)c(CC(=O)N4CCN(C[C@H](O)[C@@H](O)[C@H](O)[C@H](O)CO)CC4)c(F)c3)CC2)nc1` [Example 95, 2-(2,6-difluoro-4-(3-(1-(5-propylpyrimidin-2-yl)piperidin-4-yl)propoxy)phenyl)-1-(4-((2S,3R,4R,5R)-2,3,4,5,6-pentahydroxyhexyl)piperazin-1-yl)ethan-1-one] displayed a maximum response (Emax) of 100 to 130% and an EC50 of at most 100 nM.

In the case of `CCOc1cnc(N2CCC(CCCOc3ccc(CC(=O)N4CCN(C[C@H](O)[C@@H](O)[C@H](O)[C@H](O)CO)CC4)c(F)c3)CC2)nc1` [Example 96, 2-(4-(3-(1-(5-ethoxypyrimidin-2-yl)piperidin-4-yl)propoxy)-2-fluorophenyl)-1-(4-((2S,3R,4R,5R)-2,3,4,5,6-pentahydroxyhexyl)piperazin-1-yl)ethan-1-one], the maximum response (Emax) lay in the range of 100 to 130% and the EC50 lay in the range of 100 to 1000 nM.

`CCOc1cnc(N2CCC(CCCOc3cc(F)c(CC(=O)N4CCN(C[C@H](O)[C@@H](O)[C@H](O)[C@H](O)CO)CC4)c(F)c3)CC2)nc1` [Example 97, 2-(4-(3-(1-(5-ethoxypyrimidin-2-yl)piperidin-4-yl)propoxy)-2,6-difluorophenyl)-1-(4-((2S,3R,4R,5R)-2,3,4,5,6-pentahydroxyhexyl)piperazin-1-yl)ethan-1-one] displayed an Emax of 100 to 130% and an EC50 of at most 100 nM.

In turn, `COCc1cnc(N2CCC(CCCOc3ccc(CC(=O)N4CCN(C[C@H](O)[C@@H](O)[C@H](O)[C@H](O)CO)CC4)c(F)c3)CC2)nc1` [Example 98, 2-(2-fluoro-4-(3-(1-(5-(methoxymethyl)pyrimidin-2-yl)piperidin-4-yl)propoxy)phenyl)-1-(4-((2S,3R,4R,5R)-2,3,4,5,6-pentahydroxyhexyl)piperazin-1-yl)ethan-1-one] showed a maximal response (Emax) of 100 to 130% and a concentration giving a half-maximal response (EC50) of 100 to 1000 nM.

The term Emax denotes the maximal effect, on the per cent scale that the assay sets. One may read the EC50 as the midpoint of the concentration-response curve. A high value points to weaker potency.

For the origin of these results see patent US20240217983A1, “GPR119 AGONISTS” (Kallyope, Inc., priority 2021, published 2024).
